Assays:
[1] = system: X- and Y-chromosome bearing bovine sperm stained with Hoechst 33342; test: Split quality: height of peak divided by height of valley (PV), flow cytometry of stained bovine sperm; format: cell-based; conditions: for Height of Peak/Height of Valley: Ex 5; for Height of Peak Divided by Height of Valley: Ex 7, Yellow 6 62 μM, Phenol Red 0 μM
[2] = solvent water; shorter-wavelength local maximum; cited from earlier work
[3] = system: membrane compromised bovine sperm stained with Hoechst 33342; test: Dead quenching: dead gate intensity divided by live gate intensity, flow cytometry of stained bovine sperm; format: cell-based; conditions: for Dead Intensity (dead gate intensity divided by live gate intensity): Ex 5
Summary of the method: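 Bovine sperm stained with Hoechst 33342 (48–64 μM effective) in pH 7.4 TALP at 34° C for 60 min, then mixed 1:1 with pH 5.60 TALP containing quenching dye and held ~30 min at room temperature. Read on a MoFlo SX sorter; value is dead gate intensity divided by live gate intensity as a percentage, lower meaning more quenching.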

[4] = dye 62.5 μM, Hoechst 12 μL/2 mL
[5] = dye 62.5 μM, Hoechst 14 μL/2 mL
[6] = dye 62.5 μM, Hoechst 16 μL/2 mL
[7] = Ex 6, dye 62.5 μM, resulting pH 6.70, Hoechst 48 μM

O=S(=O)([O-])c1ccc(N=Nc2c(O)ccc3cc(S(=O)(=O)[O-])ccc23)cc1.[Na+].[Na+] [Yellow 6, Disodium 6-hydroxy-5-[(4-sulfophenyl)azo]-2-naphthalenesulfononate]
Height of Peak/Height of Valley ([1]; dye 25 μM, Average of 12 and 14 μL series): 2.06 | Height of Peak/Height of Valley ([1]; dye 25 μM, Hoechst 12 μL/2 mL): 2.05 | Height of Peak/Height of Valley ([1]; dye 25 μM, Hoechst 14 μL/2 mL): 2.07 | Height of Peak/Height of Valley ([1]; dye 25 μM, Hoechst 16 μL/2 mL): 1.13 | Height of Peak/Height of Valley ([1]; dye 62.5 μM, Average of 12 and 14 μL series): 1.66 | Height of Peak/Height of Valley [1, 4]: 1.70 | Height of Peak/Height of Valley [1, 5]: 1.62 | Height of Peak/Height of Valley [1, 6]: 1.00 | Height of Peak/Height of Valley ([1]; dye 125 μM, Average of 12 and 14 μL series): 1.77 | Height of Peak/Height of Valley ([1]; dye 125 μM, Hoechst 12 μL/2 mL): 1.73 | Height of Peak/Height of Valley ([1]; dye 125 μM, Hoechst 14 μL/2 mL): 1.80 | Height of Peak/Height of Valley ([1]; dye 125 μM, Hoechst 16 μL/2 mL): 1.26 | PV [1, 7]: 1.00 | Height of Peak Divided by Height of Valley ([1]; cells 100 million per mL): 1.26 | Height of Peak Divided by Height of Valley ([1]; cells 150 million per mL): 1.30 | Height of Peak Divided by Height of Valley ([1]; cells 250 million per mL): 1.25 | Height of Peak Divided by Height of Valley ([1]; cells 300 million per mL): 1.23 | PV ([1]; Ex 8, Bull 1, Hoechst 44 μM, Y6 50 μM alone): 1.20 | PV ([1]; Ex 8, Bull 1, Hoechst 60 μM, Y6 50 μM alone): 1.39 | PV ([1]; Ex 8, Bull 2, Hoechst 28 μM, Y6 50 μM alone): 1.64 | PV ([1]; Ex 8, Bull 2, Hoechst 44 μM, Y6 50 μM alone): 1.35 | PV ([1]; Ex 8, Bull 2, Hoechst 60 μM, Y6 50 μM alone): 1.35 | PV ([1]; Ex 8, Bull 2, Hoechst 60 μM, Y6 375 μM alone): 1.72 | PV ([1]; Ex 9, Bull 3, Hoechst 60 μM, Y6 50 μM, R3 0 μM, first Y6 series): 1.26 | PV ([1]; Ex 9, Bull 3, Hoechst 60 μM, Y6 50 μM, R3 0 μM, second Y6 series): 1.32 | Expected Absorption Maxima [2]: 480 nm | Dead Intensity (dead gate intensity divided by live gate intensity) ([3]; dye 25 μM, Average of Hoechst levels): 71% | Dead Intensity (dead gate intensity divided by live gate intensity) ([3]; dye 25 μM, Hoechst 12 μL/2 mL): 68% | Dead Intensity (dead gate intensity divided by live gate intensity) ([3]; dye 25 μM, Hoechst 14 μL/2 mL): 74% | Dead Intensity (dead gate intensity divided by live gate intensity) ([3]; dye 25 μM, Hoechst 16 μL/2 mL): 70% | Dead Intensity (dead gate intensity divided by live gate intensity) ([3]; dye 62.5 μM, Average of Hoechst levels): 51% | Dead Intensity (dead gate intensity divided by live gate intensity) [3, 4]: 50% | Dead Intensity (dead gate intensity divided by live gate intensity) [3, 5]: 52% | Dead Intensity (dead gate intensity divided by live gate intensity) [3, 6]: 52% | Dead Intensity (dead gate intensity divided by live gate intensity) ([3]; dye 125 μM, Average of Hoechst levels): 39% | Dead Intensity (dead gate intensity divided by live gate intensity) ([3]; dye 125 μM, Hoechst 12 μL/2 mL): 37% | Dead Intensity (dead gate intensity divided by live gate intensity) ([3]; dye 125 μM, Hoechst 14 μL/2 mL): 40% | Dead Intensity (dead gate intensity divided by live gate intensity) ([3]; dye 125 μM, Hoechst 16 μL/2 mL): 40% | Intensity (dead gate) [3, 7]: 50% | quenching of the dead population compared to red food dye No. 40 (FIG. 3) ([3]; three bulls, equal amounts of Hoechst 33342 and of dye): superior quenching

Reference: patent US9140688B2, “Sperm staining and sorting methods” (INGURAN, LLC, priority 2011, dated 2015)
